Literature values in patent US5279834A, “Pharmaceutical or cosmetic composition containing hydroquinone and kojic acid” (priority 1987, dated 1994).

Conditions: background statement; The Journal of Investigative Dermatology 73, 354-358 (1979)

CC1=C(/C=C/C(C)=C/C=C/C(C)=C/C(=O)O)C(C)(C)CCC1 [vitamin A acid]
irritant character: well known for its irritant character
